Patent US20260027073A1, “USE OF SMALL-MOLECULE COMPOUND HAVING NAPHTHYLAMINE STRUCTURE” (HANGZHOU PHECDAMED CO., LTD., priority 2023, published 2026)

Key:
HGPS-MSC = assay: Senescence of HGPS patient derived mesenchymal stem cells; assay type: cell-based, human; conditions: 10 μM
Description: Mesenchymal stem cells HGPS-MSC differentiated from pluripotent stem cells (iPSC) of patients with Hutchinson-Gilford Progeria Syndrome (HGPS) were taken for culture, and the experiment was divided into three groups, namely, young cells cultured for 7 generations, labeled as Con-Y; senescent cells cultured for 12 generations, labeled as Con-O; and the administration group to which 10 μM of TJ01-013 was added during the process of culture, similarly cultured up to the 12th generation, labeled as Con-O+TJ01-013; the drug administration group to which 10 μM positive drug Ionafarnib was added during the process of culture, similarly cultured up to the 12th generation, and labeled as Con-O+ Ionafarnib; after the end of the treatment, all the cells were placed under the microscope to observe the morphology of the cells, and the proportion of SA-β-gal+ cells was counted. The levels of DNA damage marker γ-H2AX and heterochromatin modification H3K9me3 after TJ01-013 treatment and Ionafarnib treatment were detected by immunofluorescence technique (the specific procedure was described previously).

[1] = tested on: CUMS animal model of depression; assay: CUMS depression model behavioral tests; assay type: in vivo, C57BL/6J mice; conditions: Fluoxetine 30 mg/kg
Excerpt: Depression, also known as depressive disorder, is characterized by significant and long-lasting depressed state of mind as the main clinical feature. The CUMS animal model of depression is a chronic unpredictable animal stress model, which simulates part of the stressor, the external material environmental stimulus, and will cause dysfunctions in the animal organism through different stress stimuli, leading to occurrence of the psychiatric disease depression. […] During this period, carefully observing the status of each mouse. • (6) Basket shaking: Placing the mice in an empty basket and shaking the basket drastically, with the criterion that the mice in the basket are unable to stand firm and sway with the shaking of the basket, for 1 hour. • (7) Olfactory stimulation: Placing anise and other spices in the mice's baskets as a means of olfactory stimulation.
The above seven experiments were conducted randomly during a week as a way to achieve unpredictability with 4 weeks of continuous stimulation.
At the end of the modeling, an open field test experiment was conducted to screen the modeled animals and group the successful modeled animals into five groups: normal group (Control), model control group (Model), positive drug treatment group (Fluoxetine), TJ0113 10 mg/kg treatment group (10 mg/kg), […], TJ0113 30 mg/kg treatment group (30 mg/kg). There were 10 mice in each group, and the administration treatment was administered by gavage, the normal and model control groups were given vehicle treatment, the vehicle was 0.5% CMC-Na, the positive drug fluoxetine hydrochloride was solubilized in saline and administered at a dose of 30 mg/kg, and the TJ0113 vehicle was 0.5% CMC-Na, and administered at a dose of 10 mg/kg and 30 mg/kg, respectively. 4 weeks after the end of the administration, behavioral tests were performed.
• (1) Adaptive feeding: Adaptive feeding with 1% sucrose water and plain water for 2 d before the start of the test, at 1 d, interchanging the sugar water and plain water to avoid positional differences for the animals, and fasting food and water for 1 d after adaption; • (2) Formal test: after fasting food and water, 1% sucrose water and plain water were given to the animals (the initial mass of sugar water and plain water is known), and weighing the remaining mass of sugar water/plain water of each animal after 24 h, and calculating the consumption rates of sugar water A and plain water B; • (3) Data analysis: sugar water preference rate=(A/A+B)×100%.
• (1) adapting to the environment: placing the animals in the test environment for 60 min to adapt to the environment before the test; • (2) Formal test: fixing the rear 1/3 of the mouse tail with tape and suspending on the stand of the experimental apparatus, with the head 15 cm from the bottom; • (3) starting timing camera, and stopping after 6 min, and recording the immobility time of the mice within 4 min; • (4) At the end of the test, using 75% alcohol to wipe the bottom and inner wall of the chamber.
• (1) adapting to the environment: placing the animals in the test environment for 60 min to adapt to the environment before the test; • (2) Formal test: placing the animals to be tested in the middle of the open field, and using the ANY-Maze software to collect the data, the test time is 10 min, and the feces and urine must be removed at the end of each round and disinfected and wiped dry with 75% alcohol; • (3) Analysis of results: total moved distance and average speed during the activity, time spent in the center area and time spent in the corner area.

tinnitus model mice = assay: Sodium salicylate-induced tinnitus; assay type: in vivo, C57BL/6 mice; conditions: 8 kHz and 16 kHz noise; 7.5, 15, 30 mg/kg, dose-dependence; vs model group; FIG. 85
Description: 7-week-old C57BL/6 male mice without tinnitus were screened for tinnitus-free mice using the acoustic startle (AS) response and gap pre-pulse inhibition of the acoustic startle (GPIAS). The mice were randomly divided into five groups, normal control group (normal, n=10), model control group (Control, n=10), TJ01-013 7.5 mg/kg treatment group (7.5 mg/kg, n=10), TJ01-013 15 mg/kg treatment group (15 mg/kg, n=10), and TJ01-013 30 mg/kg treatment group (30 mg/kg, n=10). Except for the normal control group, all the other groups were injected intraperitoneally with 450 mg/kg sodium salicylate to construct the model, in which the normal control group was injected intraperitoneally with the corresponding volume of saline, and the administration treatment was started on the day of modeling, in which the normal control group and the model control group were administrated vehicle (0.5% CMC-Na) by gavage, and the TJ01-013 treatment group was given the treatment of TJ01-013 with the corresponding concentration of TJ01-013 in a volume of 10 ml/kg, and the acoustic startle was measured again 3 hours after the last dose after 4 consecutive days of administration. Behavioral test, AS response paired with GPLAS response was the behavioral experiment to detect the presence of tinnitus. […] The output of the platform is amplified, sampled, stored in a computer, and analyzed offline. […]

SMILES: O=C(O)C[S+]([O-])c1cc(NS(=O)(=O)c2ccc(Br)cc2)c2ccccc2c1O (stereo not drawn) [I-1]
- percentage of SA-β-gal+ cells (HGPS-MSC; 12th generation, vs Con-O, FIG. 54): significantly decreased
- level of DNA damage marker γ-H2AX (HGPS-MSC; FIG. 55): significantly reduced
- expression level of heterochromatin-modified H3K9me3 (HGPS-MSC; FIG. 56): restored its expression level to some extent
- average movement speed, open field ([1]; TJ0113 10 mg/kg and 30 mg/kg, FIG. 61): significantly increased
- sugar water preference ([1]; TJ0113 30 mg/kg, gavage, FIG. 57): significantly increased
- time in despair (immobility), tail-hanging experiment ([1]; TJ0113 30 mg/kg, FIG. 58): significantly decreased
- distance moved, open field ([1]; TJ0113 30 mg/kg, FIG. 59): significantly increased
- time in the edge area of the open field ([1]; TJ0113 30 mg/kg, FIG. 60): significantly decreased
- AS response amplitude ratios (GPIAS) (tinnitus model mice): decreased significantly
